Experimental data: patent US9545386B2, “Methods of treating infectious diseases” (SLIPPERY ROCK UNIVERSITY FOUNDATION, INC., priority 2007, dated 2017)
Values after ≈ are worked out from the molar mass of the structure shown.

Key:
Type in all cases: cell-based
Aspergillus niger = test: Antifungal MIC/MFC, 96 well broth dilution; conditions: A. niger; MIC and MFC not determined
Description: (§1) Bacterial cultures were obtained from the American Type Culture Collection (ATCC), except for Streptococcus pyogenes, which was started from a Difco Bactrol disc. The other organisms were Enterococcus faecalis, Staphylococcus aureus, Escherichia coli, Salmonella typhimurium and Pseudomonas aeruginosa. Cultures were grown in Luria-Bertani (LB) broth. Fungi were obtained from Carolina Biological Supply Company (Aspergillus niger, Candida albicans and Cryptococcus neoformans); Presque Isle Cultures, Erie Pa. (Microsporum gypseum); or from ATCC (Penicillium marneffei). Fungal cultures were maintained in Sabouraud dextrose broth (SDB) or agar (SDA). All media components came from Difco.
(§2) Tests were done in flat-bottomed 96 well cell culture plates (Costar). All samples were done in duplicate. Eryngial was suspended in culture medium plus 0.04% Triton-X to make a 2% (20 mg/ml) suspension, which was passed through a 0.22 μm filter to make a uniform emulsion. Serial doubling dilutions of eryngial in culture medium plus 0.04% Triton-X were prepared, and 75 μl was added to each well. 75 μl of cell or spore suspensions in culture medium also were added to each well. The final concentration of Triton-X was 0.02%, and the final concentration of eryngial was 1% (10 mg/ml) at the highest concentration tested.
(§3) Dimethyl sulfoxide (DMSO) also was used as a solvent for eryngial. A solution of 12.5% eryngial in DMSO was the initial solution. Doubling dilutions were carried out in DMSO. The DMSO-eryngial solutions were diluted 100-fold into growth medium, resulting in a final concentration of 1% DMSO, and 0.125% (1,250 μg/ml) eryngial as the highest concentration tested.
(§4) The yeast form fungi, Candida albicans and Cryptococcus neoformans, were grown overnight in SDB. Cell density was determined by counting in a hemacytometer. Cells were diluted in fresh SDB to a density of 10^4/ml, and 75 μl, or 7.5×10^2 cells, was added to each well. The filamentous form fungi, Aspergillus niger, Microsporum gypseum and Penicillium marneffei, were grown on SDA until spores formed. The surface of the culture was rinsed vigorously with sterile distilled water to make a spore suspension, which was counted with a hemacytometer. The spores were diluted into SDB at 10^4/ml, and 75 μl, or 7.5×10^2 spores, were added to each well. The 96 well plates were incubated at room temperature in a humidified chamber for up to 96 hr, and culture growth was monitored microscopically. Growth was documented by photomicrographs at 24 hr intervals, and by determining OD630 in the microplate reader as for the bacterial cultures.
(§5) To determine whether eryngial was merely inhibiting growth of the bacteria and fungi, or whether it also was having a killing effect, the minimum bactericidal concentrations (MBC, μg/ml) or minimum fungicidal concentrations (MFC, μg/ml) were determined. This was done by removing a 50 μl sample from a well after 24 hr (bacteria) or 96 hr (fungi) and diluting the samples in 5 ml of fresh culture medium. These tubes then were incubated at the appropriate temperature for 24-96 hr and observed for any signs of growth.

Candida albicans = test: Antifungal MIC/MFC, 96 well broth dilution; conditions: C. albicans, 48-96 hr in vitro
Description: as §1, §2, §3, §4, §5

Cryptococcus neoformans = test: Antifungal MIC/MFC, 96 well broth dilution; conditions: C. neoformans, 48-96 hr in vitro
Description: as §1, §2, §3, §4, §5

Microsporum gypseum = test: Antifungal MIC/MFC, 96 well broth dilution; conditions: Nannizzia gypsea, M. gypseum, 48-96 hr in vitro
Description: as §1, §2, §3, §4, §5

Penicillium marneffei = test: Antifungal MIC/MFC, 96 well broth dilution; conditions: Talaromyces marneffei, P. marneffei, 48-96 hr in vitro
Description: as §1, §2, §3, §4, §5

[1] = system: Ancylostoma caninum infective larvae; test: In vitro bioassay of infective larvae, immobilization and lethal doses (eosin, Probit); conditions: for 24 hr ID50 ± 95% confidence intervals: immobilize 50%; for 24 hr ID90 ± 95% confidence intervals: immobilize 90%
Description: (§6) Strongyloides stercoralis infective larvae were harvested from charcoal coprocultures in nematode saline solution. The larvae were supplied by the Parasitology Laboratory, Department of Pathobiology, University of Pennsylvania. The strain of larvae was a human strain of the parasitic nematode that had been maintained for over ten years in canines by daily prednisolone treatment (2 mg/kg per os, once daily. Parastrongyloides trichosuri and Ancylostoma caninum infective larvae were also supplied by the same source as for S. stercoralis. Haemonchus contortus infective larvae were harvested from charcoal coprocultures in nematode saline solution prepared from infected sheep feces obtained from Merck Parasites Laboratory.
(§7) The 24 hr 50% and 90% immobilization doses (ID50 and ID90), and 50% and 90% lethal doses (LD50 and LD90) of eryngial (mg/ml) were investigated in vitro using infective larvae of all four parasitic nematodes. Each species was exposed to a range of eryngial dilutions by adding known volumes of a homogeneous ‘wormy’ solution (infective larvae in nematode saline solution) to known volumes of an eryngial stock suspension (10 mg/ml of nematode saline solution). Each dilution, including the control (0 mg/ml eryngial), was prepared in triplicate and also contained eosin (0.01%, w/v), which was used as an indicator of mortality, and Triton X-100 (1.0%, v/v).
(§8) Using S. stercoralis, P. trichosuri, H. contortus and A. caninum infective larvae, eryngial dilutions, excluding the controls, ranged from 0.05 to 1.15 mg/ml; 0.01 to 1.0 mg/ml; 0.5 to 2.0 mg/ml; and 0.8 to 3.0 mg/ml, respectively. Sub-sample (10 μl) counts of larvae that were mobile, immobile but not stained and stained, were done at the start of each bioassay and at 24 hr intervals for two days. Each sub-sample contained approximately 50 infective larvae.
(§9) Probit analysis was used to determine 24 hr and 48 hr immobilization and lethal doses for eryngial and ivermectin, respectively.

[2] = system: Parastrongyloides trichosuri infective larvae; test: as above; conditions: for 24 hr ID50 ± 95% confidence intervals / 24 hr ID90 ± 95% confidence intervals / 24 hr LD50 ± 95% confidence intervals / 24 hr LD90 ± 95% confidence intervals: P. trichosuri infective larvae, 24 hr in vitro; for 24 hr ID50 ± 95% confidence intervals: immobilize 50%; for 24 hr ID90 ± 95% confidence intervals: immobilize 90%; for 24 hr LD50 ± 95% confidence intervals: kill 50%; for 24 hr LD90 ± 95% confidence intervals: kill 90%
Description: as §6, §7, §8, §9

[3] = A. caninum infective larvae, 24 hr in vitro
[4] = A. caninum infective larvae, 24 hr in vitro, listed as eryngial

## CCCCCCCCC/C=C/C=O [Eryngial, trans-2-dodecenal]
Aspergillus niger
  growth in dilutions of the test compound: growth, albeit reduced, occurred in all dilutions
Candida albicans
  MIC: 391 µg/mL (≈ 2140 µM)
Candida albicans; table title says MFCs
  MBC: 391 µg/mL (≈ 2140 µM)
Cryptococcus neoformans
  MIC: 78 µg/mL (≈ 428 µM)
Cryptococcus neoformans; table title says MFCs
  MBC: 78 µg/mL (≈ 428 µM)
Microsporum gypseum
  MIC: 39 µg/mL (≈ 214 µM)
Microsporum gypseum; table title says MFCs
  MBC: 39 µg/mL (≈ 214 µM)
Penicillium marneffei
  MIC: 39 µg/mL (≈ 214 µM)
Penicillium marneffei; table title says MFCs
  MBC: 39 µg/mL (≈ 214 µM)
[1]; 24 hr ID50, A. caninum relative to P. trichosuri
  increase in the dose required to immobilize 50%: 41.9 fold
[1]; [3]
  24 hr ID50 ± 95% confidence intervals: 0.545 (0.440-0.641) mg/ml
  24 hr ID90 ± 95% confidence intervals: 0.867 (0.717-1.445) mg/ml
[1]; [4]
  24 hr ID50 ± 95% confidence intervals: 0.545 mg/mL
  24 hr ID90 ± 95% confidence intervals: 0.867 mg/mL
[1]; A. caninum infective larvae, kill 50%, 24 hr in vitro
  24 hr LD50 ± 95% confidence intervals: 0.608 (0.429-0.765) mg/ml
[1]; A. caninum infective larvae, kill 90%, 24 hr in vitro
  24 hr LD90 ± 95% confidence intervals: 1.178 (0.913-2.100) mg/ml
[2]; 24 hr ID90, P. trichosuri compared to A. caninum
  increased sensitivity to eryngial (90% immobilization): 9.4 fold
[2]; 24 hr ID90, P. trichosuri over H. contortus
  increased sensitivity to eryngial (90% immobilization): 8.5 fold
[2]; 24 hr LD50, P. trichosuri over A. caninum
  increase in sensitivity to eryngial (50% mortality doses): 5.8 fold
[2]; 24 hr LD50, P. trichosuri over H. contortus
  increase in sensitivity to eryngial (50% mortality doses): 17.1 fold
[2]; 24 hr LD90, P. trichosuri over A. caninum
  increased sensitivity to eryngial (90% mortality doses): 4 fold
[2]; 24 hr LD90, P. trichosuri over H. contortus
  increased sensitivity to eryngial (90% mortality doses): 9.3 fold
[2]
  24 hr ID50 ± 95% confidence intervals: 0.013 (0.007-0.030) mg/ml
  24 hr ID90 ± 95% confidence intervals: 0.092 (0.051-0.201) mg/ml
  24 hr LD50 ± 95% confidence intervals: 0.105 (0.084-0.133) mg/ml
  24 hr LD90 ± 95% confidence intervals: 0.297 (0.214-0.515) mg/ml
[2]; listed as eryngial
  24 hr ID50 ± 95% confidence intervals: 0.013 mg/mL
  24 hr ID90 ± 95% confidence intervals: 0.092 mg/mL
  24 hr LD50 ± 95% confidence intervals: 0.105 mg/mL
  24 hr LD90 ± 95% confidence intervals: 0.297 mg/mL
